Assay results: patent US20110151031A1, “COMPOSITIONS AND METHODS FOR UTILIZING THE SAME” (DBC, LLC, priority 2008, published 2011)

Experiments:
[1] = DPPH radical scavenging test; type: biochemical; conditions: Example 6 at a dose of 0.1 mg/ml; absorbance at 520 nm
Method: (§1) In this example, free radical-scavenging ability was determined as an indicator of antioxidant action. Specifically, free radicals produced by xanthine oxidase were determined by 1,1-diphenyl-2-picrylhydrayil (DPPH, Aldrich). First, xanthine oxidase (Aldrich) was dissolved in 0.01 M phosphate buffer. Hypoxanthine was added to this solution, and the solution was warmed at 37° C. to generate free radicals. To this solution, the composition of Example 6 was added. Further, 0.1 M DPPH solution was added to determine absorbance at 520 nm. Superoxide dismutase (SOD) activity was also determined using Electron Spin Resonance (ESR) in xanthine and xanthine-odixase system. In both cases, vitamin E was used as a positive control.

[2] = Superoxide dismutase (SOD) activity by ESR in xanthine and xanthine-oxidase system; type: biochemical
Method: as §1

## vitamin E [VitaminE]
[1]
  free radical-scavenging ability (DPPH): 460 units/g
[2]
  SOD activity: 90 units/g
